Assay results published in patent publication US20240245703A1, “TOPICAL APPLICATION OF AGENTS TO REDUCE SUN SENSITIVITY AND IMPROVE TOPICAL PHOTODYNAMIC THERAPY” (Wright State University, priority 2021, published 2024).

System: not given
Test: not given
Conditions: hairless mice, effect of propylene glycol; cited from earlier work

| Compound | absorption with propylene glycol |
| --- | --- |
| CNCCCN1c2ccccc2CCc2ccccc21 [Desipramine] | enhances absorption |
| CNCCC=C1c2ccccc2CCc2ccccc21 [Nortriptyline] | enhances absorption |

System: PDT-induced MVP release
Test: PDT-induced MVP release in skin and plasma of mice
Format: in vivo
Conditions: topical application, aSMase KO mice, data not shown
Protocol: Next, the role of PAF and aSMase in PDT-induced MVP release was assessed. […] Next, the ability of topical PDT to generate MVP in vivo in mice, and the role of aSMase in this process, was determined. […] Two approaches were used to determine if PDT-induced MVP involved aSMase.
The role of aSMase in PDT-mediated MVP release was evaluated in a murine system. For the data shown in FIG. 18, wild-type mice were treated with either sham, 100 μl of 5 mM IMIP, or 90% polyethylene glycol: 10% DMSO vehicle, or 1 μM TPA (as a positive control for MVP release), or PDT using 20 J/cm^2 blue light. Immediately following PDT, the treated areas were given vehicle or imipramine. At 4 hours post-treatment, the mice were euthanized and MVP were measured from duplicate 6-mm punch biopsies and plasma. The data are mean±SD fold increase in MVP normalized to tissue weight/plasma volume. * Denotes statistically significant (P<0.05) changes from sham; #statistically significant (P<0.05) changes from comparator denoted by line by two-way ANOVA; NS not statistically significant.
To confirm the role of aSMase in PDT-induced MVP generation, PDT effects were evaluated in the absence of aSMase was evaluated in a murine system. For the data shown in FIG. 19, wild-type or aSMase-deficient (Smpd1−/−) mice underwent sham or PDT using 20 J/cm^2 blue light. At 4 hours post-treatment, the mice were euthanized and MVP were measured from duplicate 6-mm punch biopsies and plasma. The data are mean±SD fold increase in MVP normalized to tissue weight/plasma volume. * Denotes statistically significant (P<0.05) changes from sham; NS not statistically significant.

| MVP generation in aSMase KO mice | Compound |
| --- | --- |
| generates MVP in the aSMase KO mice | CCCCCCCCCCCCC/C=C/[C@@H](O)[C@H](CO)NC(C)=O [C-2 ceramide] |

Same assay, conditions: wild-type mice, 1 μM TPA, positive control, 4 h

| Compound | MVP levels after topical TPA |
| --- | --- |
| CCCCCCCCCCCCCC(=O)O[C@@H]1[C@@H](C)[C@@]2(O)[C@@H](C=C(CO)C[C@]3(O)C(=O)C(C)=C[C@@H]23)[C@@H]2C(C)(C)[C@]12OC(C)=O [TPA, 12-O-tetradecanoylphorbol-13-acetate] | resulted in increased levels of MVP |

System: HaCaT keratinocytes
Test: PDT (5-ALA + blue light) MVP release in HaCaT keratinocytes
Format: cell-based, human
Conditions: HaCaT, 1 mM 5-ALA 4 hours then 2.5-20 J/cm^2 blue light, 4 h
Protocol: PDT results in acute cellular destruction and inflammation and photosensitivity, as well as delayed immunosuppression. […] Thus, it was of further interest whether experimental PDT of HaCaT keratinocytes generated MVP in vitro. To that end, HaCaT cells were pretreated with 5-ALA alone, or blue light alone, or a 4 hour incubation of 5-ALA in the dark followed by various fluences of blue light, and MVP were measured in the supernatants at 4 hours post blue light. 100 nM CPAF and TPA were used as positive controls for MVP release.
For the data shown in FIG. 14, HaCaT keratinocytes were treated with sham (no treatment), 0.1% ethanol vehicle control (VEH), 100 nM TPA, 100 nM CPAF, 1 mM 5-ALA for 4 hours, or 5-ALA followed by various fluences (2.5-20 J/cm^2) of blue light or blue light alone. Levels of MVPs released into supernatants were measured at 4 hours. […] For the data shown in FIG. 15, human skin explants were treated with sham, 100 μL vehicle (90% ethanol+10% DMSO) (VEH), 1 μM TPA, 1 µM CPAF, 1 mM 5-ALA for 4 hours, blue light or 5-ALA+blue light at 20 J/cm^2. After four hours, duplicate 6-mm punch biopsies were obtained, weighed, and MVPs were measured. The data are the mean±SE from 3-4 separate experiments conducted in duplicate. * Denotes statistically significant (P <0.05) changes from sham values.
Supernatants were collected at 4 hours and MVP measured. The data are the mean±SE MVP fold change from sham-treated values. For the data shown in FIG. 17, human skin explants were treated as in FIG. 15, with the exception that in some experiments 100 μL of 5 mM IMIP was added post-PDT. MVP were measured in duplicate 6-mm punch biopsies obtained 4 hours post-treatment.

| Compound | MVP generation, 5-ALA along with blue light (PDT) |
| --- | --- |
| NCC(=O)CCC(=O)O [Compound 5-ALA, 5-aminolevulinic acid] | resulted in high levels of MVP generation in a dosage-dependent manner |

Same assay, conditions: HaCaT, 1 mM 5-ALA 4 hours without blue light

| Compound | MVP formation, 5-ALA alone |
| --- | --- |
| NCC(=O)CCC(=O)O [Compound 5-ALA, 5-aminolevulinic acid] | did not generate appreciate MVP formation |

System: aSMase
Test: not given
Conditions: 10 micromolar, PC12 cells, incubation time 0.5 h; % of corresponding control values; cited from earlier work

| Compound | Residual ASM Activity [%] |
| --- | --- |
| Clc1ccccc1CNCC1CCC(CNCc2ccccc2Cl)CC1 (centres unmarked) [AY9944, N-[(2-chlorophenyl)methyl]-1-[4-[[(2-chlorophenyl)methylamino]methyl]cyclohexyl]methanamine] | 22.1 |
| CN1[C@@H]2CC[C@H]1C[C@@H](OC(c1ccccc1)c1ccccc1)C2 [Benztropine] | 12.7 |
| CCN(CC)CCOc1ccc(C(=C(Cl)c2ccccc2)c2ccccc2)cc1 [Clomiphene] | 13.0 |
| CN(C)CCCN1c2ccccc2CCc2ccc(Cl)cc21 [Clomipramine] | 21.8 |
| CN(C)CCC=C1c2ccccc2C=Cc2ccccc21 [Cyclobenzaprine] | 26.2 |
| CNCCCN1c2ccccc2CCc2ccccc21 [Desipramine] | 15.6 |
| CC(NCCC(c1ccccc1)c1ccccc1)c1ccccc1 (centres unmarked) [Fendiline] | 25.2 |
| CNCCC(Oc1ccc(C(F)(F)F)cc1)c1ccccc1 (centres unmarked) [Fluoxetine] | 13.0 |
| OCCN1CCN(CC/C=C2/c3ccccc3Sc3ccc(C(F)(F)F)cc32)CC1 [Flupenthixol] | 18.2 |
| CNCCCC12CCC(c3ccccc31)c1ccccc12 [Maprotiline] | 13.5 |
| NCCC(Oc1ccc(C(F)(F)F)cc1)c1ccccc1 (centres unmarked) [Norfluoxetine] | 22.5 |
| CNCCC=C1c2ccccc2CCc2ccccc21 [Nortriptyline] | 13.3 |
| Fc1ccc([C@@H]2CCNC[C@H]2COc2ccc3c(c2)OCO3)cc1 [Paroxetine] | 31.7 |
| C1CCC(C(CC2CCCCN2)C2CCCCC2)CC1 (centres unmarked) [Perhexiline] | 8.5 |
| OCCN1CCN(CCCN2c3ccccc3Sc3ccc(Cl)cc32)CC1 [Perphenazine] | 20.1 |
| CCN(CC)C(C)CN1c2ccccc2Sc2ccccc21 (centres unmarked) [Profenamine] | 29.7 |
| CN(C)CCCN1c2ccccc2Sc2ccccc21 [Promazine] | 33.6 |
| CC(CN1c2ccccc2Sc2ccccc21)N(C)C (centres unmarked) [Promethazin] | 32.2 |
| CNCCCC1c2ccccc2C=Cc2ccccc21 [Protriptyline] | 12.7 |
| CN[C@H]1CC[C@@H](c2ccc(Cl)c(Cl)c2)c2ccccc21 [Sertraline] | 12.3 |
| CC(C)(C)c1ccc(C(O)CCCN2CCC(C(O)(c3ccccc3)c3ccccc3)CC2)cc1 (centres unmarked) [Terfenadine] | 21.8 |
| CN(C)CCCN1c2ccccc2Sc2ccc(C(F)(F)F)cc21 [Triflupromazine] | 29.5 |
| CC(CN(C)C)CN1c2ccccc2CCc2ccccc21 (centres unmarked) [Trimipramine] | 13.8 |

Same assay, conditions: 10 micromolar, PC12 cells, incubation time 6 h; % of corresponding control values; cited from earlier work

| Compound | Residual ASM Activity [%] |
| --- | --- |
| CCN(CC)CCCN(c1ccccc1)C1Cc2ccccc2C1 [Aprindine] | 27.5 |
| COc1ccc(CCN2CCC(Nc3nc4ccccc4n3Cc3ccc(F)cc3)CC2)cc1 [Astemizole] | 14.3 |
| COCC(=O)O[C@]1(CCN(C)CCCc2nc3ccccc3[nH]2)CCc2cc(F)ccc2[C@@H]1C(C)C [Mibefradil] | 20.8 |
| OC1(c2ccc(Cl)c(C(F)(F)F)c2)CCN(CCCC(c2ccc(F)cc2)c2ccc(F)cc2)CC1 [Penfluridol] | 22.0 |
| CC/C(=C(\c1ccccc1)c1ccc(OCCN(C)C)cc1)c1ccccc1 [Tamoxifen] | 4.1 |
| CSc1ccc2c(c1)N(CCC1CCCCN1C)c1ccccc1S2 (centres unmarked) [Thioridazin] | 10.4 |
| CN1CCN(CCCN2c3ccccc3Sc3ccc(C(F)(F)F)cc32)CC1 [Trifluoperazine] | 8.3 |
| c1cc(CN2CCCCC2)cc(OCCCNc2nc3ccccc3s2)c1 [Zolantidine_(SKB41), Zolantidine] | 21.6 |

Same assay, conditions: 10 micromolar, PC12 cells, incubation time 24 h; % of corresponding control values; cited from earlier work

| Compound | Residual ASM Activity [%] |
| --- | --- |
| CCN(CCCc1ccccc1)CCCc1ccccc1 [Alverine] | 21.7 |
| CCCCc1oc2ccccc2c1C(=O)c1cc(I)c(OCCN(CC)CC)c(I)c1 [Amiodarone] | 14.5 |
| CC(C)COCC(CN(Cc1ccccc1)c1ccccc1)N1CCCC1 (centres unmarked) [Bepridil] | 27.1 |
| OC(CCN1CCCCC1)(c1ccccc1)C1CC2C=CC1C2 (centres unmarked) [Biperidene] | 26.2 |
| CCN(CC)CCNC(C(=O)OCCC(C)C)c1ccccc1 (centres unmarked) [Camylofin] | 21.7 |
| COc1ccccc1OCCNCC(O)COc1cccc2[nH]c3ccccc3c12 (centres unmarked) [Carvedilol] | 22.4 |
| Clc1ccc(C(OCCN2CCCCC2)c2ccccc2)cc1 (centres unmarked) [Cloperastine] | 26.7 |
| C[C@H]1[C@H]2CC[C@H]3[C@@H]4CC=C5C[C@@H](N(C)C)CC[C@]5(C)[C@H]4CC[C@]23CN1C [Conessine] | 20.8 |
| CCN(CC)CCOC(=O)C(c1ccccc1)C1CCCCC1 (centres unmarked) [Drofenine] | 20.8 |
| CC[C@H]1CN2CCc3cc(OC)c(OC)cc3[C@@H]2C[C@@H]1C[C@H]1NCCc2cc(OC)c(OC)cc21 [Emetine] | 0.4 |
| CN(CCCN1c2ccccc2CCc2ccccc21)CC(=O)c1ccc(Cl)cc1 [Lofepramine] | 19.2 |
| CN(C)C(=O)C(CCN1CCC(O)(c2ccc(Cl)cc2)CC1)(c1ccccc1)c1ccccc1 [Loperamide] | 24.4 |
| CCN(CCCCOC(=O)c1ccc(OC)c(OC)c1)C(C)Cc1ccc(OC)cc1 (centres unmarked) [Mebeverine] | 31.8 |
| CN1CCC(=C2c3ccccc3Sc3ccccc32)CC1 [Pimethixene] | 16.5 |
| C[C@H]1CC[C@]2(NC1)O[C@H]1C[C@H]3[C@@H]4CC[C@H]5C[C@@H](O)CC[C@]5(C)[C@H]4CC[C@]3(C)[C@H]1[C@@H]2C [Tomatidine] | 15.8 |

Same assay, conditions: 10 micromolar, PC12 cells, incubation time 48 h; % of corresponding control values; cited from earlier work

| Compound | Residual ASM Activity [%] |
| --- | --- |
| CN(Cc1cc(Br)cc(Br)c1N)C1CCCCC1 [Bromhexine] | 102.8 |
| CC(C)/N=c1\cc2n(-c3ccc(Cl)cc3)c3ccccc3nc-2cc1Nc1ccc(Cl)cc1 [Clofazimine] | 23.7 |
| Fc1ccc(C(c2ccc(F)cc2)N2CCN(C/C=C/c3ccccc3)CC2)cc1 [Flunarizine] | 32.7 |

Same assay, conditions: from Kornhuber et al. 2008; cited from earlier work

| Compound | residual aSMase activity after treatment [%] |
| --- | --- |
| O=C(CCCN1CCC(O)(c2ccc(Cl)cc2)CC1)c1ccc(F)cc1 [haloperidol] | 86.1 |
